Results taken from patent US8092800B2 (priority 2005, dated 2012).
Marks after values point to notes of the source that are not given here. Square brackets hold non-standard residues; d marks the D form. Peptide text beside a SMILES is read from it. * marks the point of attachment. Sta = CC(C)C[C@H](N)[C@@H](O)CC(=O)O; Isovaleryl = CC(C)CC(=O)*

What was measured:
[1] = target: SAP2 (Candida albicans, UniProt P0DJ06)
Description: This was based on bovine serum albumin degradation by a native, highly purified SAP2 preparation, essentially as described by Ross et al. Briefly, each assay contained 0.6 ml of 1% (w/v) BSA (Sigma Chem. Co., Detroit, Mich.) in 50 mM sodium citrate pH 3.2 and 0.15 enzyme solution (100 μg/ml). After 30 min at 37° C. 0.4 ml 10% (w/v) trichloroacetic acid was added. The tubes were stored in ice for 30 min and then centrifuged (1600×g) for 10 min. The absorbance of supernatant was read at 280 nm. The control was 1% BSA in enzyme-free citrate buffer. One unit of enzyme catalysed a delta OD of 1 per minute.

[2] = system: Candida albicans strain SA40; details: cited from earlier work
[3] = system: C. albicans; experiment: Systemic C. albicans infection in Balb/c mice, PEGylated dAbs; format: in vivo, Candida albicans; details: 1 mg/kg at 2 h, 6 h and 24 h post infection
Description: Briefly, mice were chronically infected with C. albicans by injecting 1×10^6 cells per mouse via the lateral tail vein (in 0.2 ml saline). Anti-SAP2 or anti-MP65 dAbs were administered as previously indicated. Survival rates compared with control animals were measured.
PEGylated versions of both monomer and dimer constructs were assayed for efficacy in controlling a systemic C. albicans infection in Balb/c mice, using a protocol similar to the murine systemic model described above. One mg/kg of PEGylated dAb protein or fluconazole was administered at 2 h, 6 h and 24 h post infection to groups of 8 mice.

[4] = system: Candida albicans; experiment: Adherence of Candida to plastic; format: cell-based; details: anti-MP65 dAbs
Description: The fungal cells were grown at 28° C. on YPD agar slants (2.0% wt/vol glucose, 1.0% wt/vol yeast extract, 2.0 wt/vol Bacto peptone, (Difco, Detroit, Mich.). Single suspensions of each organism were prepared by a modification of the procedure of Rotronsen (Rotronsen, D., et al. 1986. Rev Infect Dis.; 8:73-85). Briefly, cells were grown 24 h at 28° C. on a rotating drum in YBD broth pH5.0 (0.2% wt/vol yeast extract, 2.0% wt/vol […] and 2.0% wt/vol dextrose, (Difco, Detroit, Mich.). After harvesting by centrifugation, the C. albicans cells were washed three times in physiological solution (0.85% NaCl). Blastospores were counted with Thoma camera and adjusted to desired concentration (10^8 cells/ml) in Hank's Balanced Salt Solution with calcium and magnesium (Hyclone, Logan, Utah).
For adherence to the plastic, the fungal cells, grown as above, were washed twice with water and suspended at 1.5×10^3 cells/ml in modified Lee's or M199 liquid media. 1.5×10^3 cells were incubated for 3 hrs at 37° C. in 6-well polystyrene plates (Corning Incorporated, Corning, N.Y.,). After extensive washing, 1 ml of Sabouraud dextrose agar was poured in each well and allowed to solidify. After incubation at 37° C. for 24 hrs, colonies were counted and the results expressed as percentage of the inoculum. […]

[5] = system: Candida albicans strain SA40; experiment: Rat vaginal candidiasis model, strain SA40; format: in vivo; details: rats, pre-treated 30 min before intravaginal challenge with SA40
Description: The selected dAbs as described above were assayed for their capacity to accelerate fungus clearance from the rat vaginal cavity challenged by a virulent vaginopathic Candida strain. The controls were the use of an irrelevant dAb, and an anti-enolase antibody as negative ones and the antimycotic fluconazole and pepstatin A (the prototypal Sap inhibitor) as positive ones.

Sequence of SAP2 (P0DJ06 57-398): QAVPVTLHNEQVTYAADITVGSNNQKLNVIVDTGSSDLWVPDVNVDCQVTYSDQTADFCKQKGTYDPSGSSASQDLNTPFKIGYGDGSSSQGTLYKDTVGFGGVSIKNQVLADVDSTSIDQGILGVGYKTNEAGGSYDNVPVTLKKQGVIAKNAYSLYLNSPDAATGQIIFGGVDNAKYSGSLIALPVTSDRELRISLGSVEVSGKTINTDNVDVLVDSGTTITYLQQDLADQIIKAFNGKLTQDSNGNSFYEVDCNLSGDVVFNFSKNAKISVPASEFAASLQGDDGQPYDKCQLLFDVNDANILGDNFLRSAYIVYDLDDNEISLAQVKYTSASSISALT

CC(C)CC(=O)N[C@H](C(=O)N[C@H](C(=O)N[C@@H](CC(C)C)[C@@H](O)CC(=O)N[C@@H](C)C(=O)N[C@@H](CC(C)C)[C@@H](O)CC(=O)O)C(C)C)C(C)C [pepstatin, pepstatin A] (Isovaleryl-VV[Sta]A[Sta]-OH)
ΔOD/ml/min (BSA degradation by SAP) ([1]; citrate buffer + 1% BSA + SAP, acidic conditions, no-inhibitor control 1.0): 0.36 ΔOD/ml/min | % Inhibition ([1]; inhibition of BSA degradation by SAP2, compared with pepstatin (100*)): 100* %

OC(Cn1cncn1)(Cn1cncn1)c1ccc(F)cc1F [Fluconazole, fluconazole]
susceptibility of strain [2]: fully susceptible | Mean Survival Time [3]: >30 days | Survival [3]: 88%

B1: ADR3-1: MP65 binding dAb, SEQ ID No 5 (antibody, listed as Homo sapiens, V domains shown)
VH: EVQLLESGGGLVQPGGSLRLSCAASGFTFPDYSMTWVRQAPGKGLEWVSLISNSGKTTMYADSVKGRFTISRDNSKNTLYLQMNSLRAEDTAVYYCAKWVNRILQEFDYWGQGTLVTVSS
modifications: MP65-binding dAb
capacity to inhibit adherence to plastic [4]: capacity to inhibit adherence to plastic

B2: ADR4-13: Sap2 binding dAb, SEQ ID No 25 (protein, listed as Homo sapiens)
VHH: EVQLLESGGGLVQPGGSLRLSCAASGFSISYKNMAWVRQAPGKGLEWVSAIKAANGSTYYADSVKGRFTISRDNSKNTLYLQMNSLRAEDTAVYYCATGSQKKRTYTFDFWGQGTLVTVSS
modifications: Sap2-binding dAb
day of healing/resolution of infection (<1 CFU/μl of vaginal fluid), preventative [5]: 21 days

B3: ADR4-6: Sap2 binding dAb, SEQ ID No 18 (protein, listed as Homo sapiens)
VHH: EVQLLESGGGLVQPGGSLRLSCAASGFRVSNYDLTWVRQAPGKGLEWVSTISATNGSTYYADSVKGRFTISRDNSKNTLYLQMNSLRAEDTAVYYCAAVTWWLLRHNDNLGFWGQGTLVTVSS
modifications: Sap2-binding dAb
day of healing/resolution of infection (<1 CFU/μl of vaginal fluid), preventative [5]: 21 days
